The text below walks through data of US12180198B2, “Ribocil C antibiotics effective for Gram-negative pathogens” (THE BOARD OF TRUSTEES OF THE UNIVERSITY OF ILLINOIS, priority 2018, dated 2024).

One assay deals with A. baumannii W41979. The assay can be described thus: MIC, micro-dilution broth method. The format is cell-based. The conditions noted are these: Acinetobacter baumannii; A. baumannii W41979; read-out: MIC. As to the method:
(§1) Compounds were evaluated against a panel of Gram-positive and Gram-negative organisms. MIC values were determined using the micro-dilution broth method as outlined by the Clinical and Laboratory Standards Institute (clsi.org/) and are listed in […]. All experiments were performed in biological triplicate.
(§2) Antimicrobial susceptibility tests. Susceptibility testing was performed in biological triplicate, using the micro-dilution broth method as outlined by the Clinical and Laboratory Standards Institute. Bacteria were cultured with cation-adjusted Muller-Hinton broth (Sigma-Aldrich, Cat #90922) in round-bottom 96-well plates (Corning, Cat #3788). Human serum (pooled gender, 0.2 μm filtered) was purchased from BioIVT (Hicksville, NY).
(In general: Broth dilution looks for growth in wells or tubes with falling amounts of substance.)

The subject of another assay is E. cloacae ATCC 29893. The assay can be described thus: MIC, micro-dilution broth method. The format is cell-based. The settings on record: Enterobacter cloacae, ATCC29893; E. cloacae ATCC 29893; read-out: MIC. How it is done:
as §1, §2

Another assay concerns E. coli AR-0493. The assay can be described thus: MIC, micro-dilution broth method. The format is cell-based. The conditions noted are these: Escherichia coli, AR0493; E. coli AR-0493; read-out: MIC. How it is done:
as §1, §2

Another assay concerns E. coli BAA-2340. The assay can be described thus: MIC, micro-dilution broth method. The format is cell-based. The settings on record: Escherichia coli, BAA2340; E. coli BAA-2340; read-out: MIC. How it is done: as §1, §2
For the next assay, the system named is E. coli MG1655. The assay can be described thus: MIC, micro-dilution broth method. The conditions noted are these: Escherichia coli; E. coli MG1655; read-out: MIC. The format is cell-based. How it is done:
as §1, §2

The test system of another assay is E. coli ΔrfaC JW3596. The assay can be described thus: MIC, micro-dilution broth method. The settings on record: Escherichia coli. The format is cell-based. How it is done:
as §1, §2

The subject of the next assay is E. coli ΔtolC JW5503. The assay can be described thus: MIC, micro-dilution broth method. The format is cell-based. The conditions noted are these: Escherichia coli. As to the method: as §1, §2
A further assay has as its system K. pneumoniae S47889. The assay can be described thus: MIC, micro-dilution broth method. The format is cell-based. The settings on record: Klebsiella pneumoniae; K. pneumoniae S47889; read-out: MIC. As to the method:
as §1, §2

In the next assay the test system is P. aeruginosa PA01. The assay can be described thus: MIC, micro-dilution broth method. The format is cell-based. The settings on record: Pseudomonas aeruginosa; P. aeruginosa PA01; read-out: MIC. How it is done: as §1, §2
The test system of a further assay is S. aureus ATCC 29213. The assay can be described thus: MIC, micro-dilution broth method. The format is cell-based. The settings on record: Staphylococcus aureus, ATCC29213, S. aureus ATCC 29213; read-out: MIC. As to the method: as §1, §2
For assay [1], the system named is Gram-negative ESKAPE pathogens and E. coli. The assay can be described thus: MIC, micro-dilution broth method (text summary). The format is cell-based. The conditions noted are these: Gram-negatives with intact outer membranes. How it is done:
FIG. 2. Antimicrobial activity of Debio-1452 and derivatives. MIC values were determined using the micro-dilution broth method as outlined by the Clinical and Laboratory Standards Institute (clsi.org/). All experiments were performed in biological triplicate.
as §2

For another assay, the target named is E. coli FabI (Escherichia coli, UniProt P0AEK4). The assay can be described thus: In vitro FabI inhibition assay. The format is biochemical. The settings on record: 20 nM enzyme. How it is done: Expression and purification of E. coli FabI. E. coli BL21 (DE3) pLysS (Novagen) were transformed with pET15-ecFabI. Overnight culture (10 mL) in LB supplemented with 50 μg/mL ampicillin from single colony was diluted into 1 L LB+50 μg/mL ampicillin. Cells were grown at 37° C., 250 rpm until OD600 reached 0.8. Culture was cooled to 18° C. and induced with 0.5 mM IPTG for 18 h at 18° C. Cells were harvested by centrifugation (5,000×g, 10 min, 4° C.). Cell pellets were flash frozen and store at −20° C. pending purification. Frozen cell pellets were thawed on ice and resuspended (5 mL per gram wet pellet, typically 20-30 mL) with 0.5% CHAPS, 1 mM PMSF, 1 μg/mL leupeptin, 1 μg/mL pepstatin A, and 2 μg/mL aprotinin in binding buffer [20 mM Tris (pH 7.9), 500 mM NaCl, 5 mM imidazole]. Cells were lysed by sonication on ice (30%, 10 s pulse, 20 s rest, 5 min total). Lysate was clarified by centrifugation (35,000×g, 1 h, 4° C.) and filtration through 0.2 μm syringe filter. Lysate was incubated with 5 mL Co-NTA agarose (HisPur cobalt resin, Thermo-Fisher Scientific Cat #89965, pre-equilibrated with binding buffer) for 30 min at 4° C. with gentle rocking. Agarose-containing lysate was transferred to column and flow through discarded. Column was washed with 2 column volumes of binding buffer followed by 10 column volumes of wash buffer [20 mM Tris (pH 7.9), 500 mM NaCl, 60 mM imidazole]. Protein was eluted with 15 mL elution buffer [20 mM Tris (pH 7.9), 500 mM NaCl, 300 mM imidazole]. […] Protein concentration was determined by BCA assay (ThermoFisher Cat #23227).
In vitro FabI inhibition assay. […] Plate was placed in plate-reader (SpectraMax 190, Molecular Devices) under temperature control (25° C.), and temperature was allowed to equilibrate. […] After shaking for 5 s, reaction progress was monitored by absorbance at 340 nm every 15 s for 90 min. Linear portion of reaction progress curve was fit using plate-reader software (SoftMax Pro 7.0). Percent activity was calculated relative to DMSO-only and no-enzyme controls in each plate. […]

Converted amounts (≈) assume the structure as drawn.

Sequence of E. coli FabI (P0AEK4 whole entry): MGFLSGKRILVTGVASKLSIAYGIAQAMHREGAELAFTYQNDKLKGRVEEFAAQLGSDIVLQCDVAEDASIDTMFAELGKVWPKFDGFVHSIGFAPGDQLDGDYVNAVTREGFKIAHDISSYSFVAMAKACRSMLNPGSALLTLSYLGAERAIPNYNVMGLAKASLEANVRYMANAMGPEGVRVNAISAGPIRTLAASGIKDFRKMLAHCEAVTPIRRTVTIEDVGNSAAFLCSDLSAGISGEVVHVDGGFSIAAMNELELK

One may read the MIC as the smallest concentration in the dilution series that meets the test's criterion for growth inhibition. For the compound `Cc1c(CN(C)C(=O)/C=C/c2cnc3c(c2)CC(NC(=O)OC(C)(C)C)C(=O)N3)oc2ccccc12` (stereo not drawn) [compound 8, tert-butyl(E)-(6-(3-(methyl((3-methylbenzofuran-2-yl)methyl)amino)-3-oxoprop-1-en-1-yl)-2-oxo-1,2,3,4-tetrahydro-1,8-naphthyridin-3-yl)carbamate], the MIC was greater than 32 µg/mL with A. baumannii W41979; greater than 32 µg/mL in the assay with E. cloacae ATCC 29893; greater than 32 µg/mL with E. coli AR-0493; greater than 32 µg/mL with E. coli BAA-2340; greater than 32 µg/mL with E. coli MG1655; 0.25 µg/mL (≈ 0.51 µM) against E. coli ΔrfaC JW3596. In addition, the MIC in the assay with E. coli ΔtolC JW5503 was 0.125 µg/mL (≈ 0.255 µM); in the assay with K. pneumoniae S47889, greater than 32 µg/mL; in the assay on P. aeruginosa PA01, greater than 32 µg/mL; in the assay on S. aureus ATCC 29213 it was 0.016 µg/mL (≈ 0.0326 µM). For the same compound, the “activity (in words)” value in [1] was “no activity”. In addition, at E. coli FabI, the “inhibition of E. coli FabI in vitro (in words)” value is given as “potent FabI inhibitors”.
